Data taken from paper PMC3687097 (Diabetes Therapy, 2013).
Entries after “also recorded” stand apart in the source; their conditions may differ. Like-named read-outs stand apart in the source and are kept apart here.

What was measured:
[1] = for Patients reporting an adverse event: 22 patients
[2] = cited from earlier work

Row | Structure (SMILES) | Episodes of hypoglycemia ([1]; dapagliflozin 10 mg single oral dose, with and without voglibose) | Patients reporting an adverse event ([1]; pharmacokinetic sampling period 1: dapagliflozin with voglibose) | Patients reporting an adverse event ([1]; pharmacokinetic sampling period 2: dapagliflozin only) | Intensity of observed AEs ([1]; whole study, dapagliflozin 10 mg with or without voglibose) | Systemic / gastrointestinal absorption after oral administration [2]
1 | CCOc1ccc(Cc2cc([C@@H]3O[C@H](CO)[C@@H](O)[C@H](O)[C@H]3O)ccc2Cl)cc1 [Dapagliflozin] | no episodes of hypoglycemia | one patient | three patients | mild or moderate | 
2 | OCC(CO)N[C@H]1C[C@](O)(CO)[C@@H](O)[C@H](O)[C@H]1O [Voglibose] |  |  |  |  | poorly absorbed; also recorded: minimal systemic absorption
